Laboratory results reported in patent US9034859B2, “Sulfated oxysterol and oxysterol sulfation by hydroxysterol sulfotransferase promote lipid homeostasis and liver proliferation” (Virginia Commonwealth University, priority 2011, dated 2015).

Experiments:
[1] = tested on: SREBP-1c pathway; experiment: Western blot of cytoplasmic and nuclear liver extracts, acute treatment; type: in vivo, C57BL/6J female mice; details: HFD mice
Method: Animal studies were approved by Institutional Animal Care and Use Committee of McGuire Veterans Affairs Medical Center and were conducted in accordance with the Declaration of Helsinki, the Guide for the Care and Use of Laboratory Animals, and all applicable regulations. […] All mice were housed under identical conditions in an aseptic facility and given free access to water and food. At the end of each period, the mice were intraperitoneally injected with vehicle solution (ethanol/PBS; […] Serum triglyceride, total cholesterol, high density lipoprotein-cholesterol, glucose, alkaline phosphatase (ALK), alanine aminotransferase (ALT), and aspartate aminotransferase (AST) were measured using standard enzymatic techniques in the clinical laboratory at McGuire Veterans Affairs Medical Center. Lipoprotein profiles in sera were analyzed by HPLC as following described. Liver tissues were homogenized, and cytoplasmic and nuclear fractions were extracted with NE-PER Nuclear and Cytoplasmic Extraction Kit (Fisher Scientific, Pittsburgh, Pa.). […] Each positive band was quantified by Advanced Image Data Analyzer (Aida, Straubenhardt, Germany).

[2] = Serum parameters after acute treatment of HFD- or HCD-fed mice (NAFLD model); type: in vivo, C57BL/6J female mice; details: 25 mg/kg i.p. twice, fasted overnight, mean ± SD, n=15-17
Method: (§1) Animal studies were approved by Institutional Animal Care and Use Committee of McGuire Veterans Affairs Medical Center and were conducted in accordance with the Declaration of Helsinki, the Guide for the Care and Use of Laboratory Animals, and all applicable regulations. To examine the effect of 25HC3S on diet-induced lipid accumulation in sera and liver, 8-week-old female C57BL/6J mice (Charles River, Wilmington, Mass.) were randomly assigned to three groups: the first control group was fed a chow diet; the high fat diet (HFD) group was fed a HFD (Harlan Teklad, Madison, Wis.) containing 42% kcal from fat, 43% kcal from carbohydrate, 15% kcal from protein and 0.2% cholesterol; and the high cholesterol diet (HCD) group was fed a 2% cholesterol diet with 18% kcal from fat, 58% kcal from carbohydrate and 24% kcal from protein for 10 weeks, respectively. All mice were housed under identical conditions in an aseptic facility and given free access to water and food. At the end of each period, the mice were intraperitoneally injected with vehicle solution (ethanol/PBS; Vehicle), 25HC (25 mg/kg), or 25HC3S (25 mg/kg) for 2 times and fasted over night for acute treatment (n=15-17 for each group) or once every three days for 6 weeks (n=16 for each group) and fasted 5 hrs for long-term treatment; and blood samples were collected. Serum triglyceride, total cholesterol, high density lipoprotein-cholesterol, glucose, alkaline phosphatase (ALK), alanine aminotransferase (ALT), and aspartate aminotransferase (AST) were measured using standard enzymatic techniques in the clinical laboratory at McGuire Veterans Affairs Medical Center. Lipoprotein profiles in sera were analyzed by HPLC as following described.

[3] = tested on: lipogenic gene expression; experiment: Relative hepatic mRNA expression by real-time RT-PCR, acute treatment; type: in vivo, C57BL/6J female mice; details: liver; for ABCA1 relative hepatic mRNA / ABCG1 relative hepatic mRNA / ACC1 relative hepatic mRNA / ACOX1 relative hepatic mRNA / CD36 relative hepatic mRNA / CPT1 relative hepatic mRNA / CYP7α relative hepatic mRNA / CYP27α relative hepatic mRNA / FABP1 relative hepatic mRNA / FAS relative hepatic mRNA / FATP relative hepatic mRNA / G6Pase relative hepatic mRNA / GCK relative hepatic mRNA / GPAM relative hepatic mRNA / LDLR relative hepatic mRNA / LXRα relative hepatic mRNA / MCAD relative hepatic mRNA / MTTP relative hepatic mRNA / PCK1 relative hepatic mRNA / PLTP relative hepatic mRNA / PPARα relative hepatic mRNA / Pkir relative hepatic mRNA / SCD relative hepatic mRNA / SRB1 relative hepatic mRNA / SREBP-1c relative hepatic mRNA / SULT2B1b relative hepatic mRNA: acute treatment (twice), mean ± SD, n=5-6
Method: as §1
Total RNA was isolated with SV Total RNA Isolation Kit (Promega, Madison, Wis.), which included DNase treatment. Total RNA, 2 μg, was used for the first-strand cDNA synthesis as recommended by the manufacturer (Invitrogen, Carlsbad, Calif.). Real-time RT-PCR was performed using SYBR Green as indicator on ABI 7500 Fast Real-Time PCR System (Applied Biosystems, Foster City, Calif.). All primer/probe sets for real-time PCR were TaqMan gene expression assays (Applied Biosystems, Foster City, Calif.). Amplifications of β-actin and GAPDH were used as internal controls. Relative messenger RNA (mRNA) expression was quantified with the comparative cycle threshold (Ct) method and was expressed as 2^−ΔΔCt. Suitable primers were utilized.

[4] = tested on: LXR signaling pathway; experiment: Western blot of LXR and its target genes and PCNA in mouse liver (Example 3); type: in vivo, C57BL/6 mice
Method: Cayman Chemical, Ann Arbor, Mich.); […] […] Metabolism. (Accepted)]. […] Cell lysates were prepared from frozen mouse liver tissues. Total proteins, 100 μg, were separated by 10% SDS-PAGE, and transferred to PVDF membrane (Millipore, Eschbom, Germany). […] Louis, Mo.) was used as a loading control. The immunoreactive bands were detected by Fujifilm Medical System (Fujifilm, Stamford, Conn.) and quantified by Advanced Image Data Analyzer (Aida Inc., Straubenhardt, Germany).

[5] = HPLC analysis of serum lipoprotein profiles; type: in vivo, C57BL/6J female mice; details: HFD mice, acute treatment
Method: Animal studies were approved by Institutional Animal Care and Use Committee of McGuire Veterans Affairs Medical Center and were conducted in accordance with the Declaration of Helsinki, the Guide for the Care and Use of Laboratory Animals, and all applicable regulations. […] All mice were housed under identical conditions in an aseptic facility and given free access to water and food. At the end of each period, the mice were intraperitoneally injected with vehicle solution (ethanol/PBS; […] Serum triglyceride, total cholesterol, high density lipoprotein-cholesterol, glucose, alkaline phosphatase (ALK), alanine aminotransferase (ALT), and aspartate aminotransferase (AST) were measured using standard enzymatic techniques in the clinical laboratory at McGuire Veterans Affairs Medical Center. Lipoprotein profiles in sera were analyzed by HPLC as following described. […] Fractions were collected for 1.2 min each. The cholesterol assay was performed using 180 μl of each fraction plus 20 μl of a 10× solution of Wako Total Cholesterol E Reagent (Wako Chemicals USA, Richmond, Va.) in a 96 well plate, incubated at 37° C. and read at 595 nm.

[6] = HFD mice, acute treatment, compared to vehicle

## C[C@H](CCCC(C)(C)O)[C@H]1CC[C@H]2[C@@H]3CC=C4C[C@@H](O)CC[C@]4(C)[C@H]3CC[C@]12C [25HC, 25-hydroxycholesterol]
[1]
  nuclear SREBP-1, cytoplasmic ACC1 and FAS protein levels: increased
[2]; HFD 10 weeks
  ALK: 55 ± 12 IU/L
  ALT: 56 ± 14 IU/L
  AST: 294 ± 57 IU/L
  Cholesterol: 144 ± 24 mg/dL
  Glucose: 188 ± 26 mg/dL
  HDL-C: 119 ± 21 mg/dL
  Triglycerides: 49 ± 13 mg/dL
[3]; HFD mice, acute treatment
  decrease of ACOX1 mRNA level: 55%
  decrease of PPARα mRNA level: 40%
  decrease of SCD mRNA level: 40%
  increase of ACC1 mRNA level: 160%
  increase of FAS mRNA level: 150%
  increase of SREBP-1c mRNA level: 170%
  increase of SULT2B1b expression: 3 fold
[3]; HFD mice
  ABCA1 relative hepatic mRNA: 1.08 ± 0.24
  ABCG1 relative hepatic mRNA: 1.38 ± 0.78
  ACC1 relative hepatic mRNA: 1.58 ± 0.64
  ACOX1 relative hepatic mRNA: 0.45 ± 0.17
  CD36 relative hepatic mRNA: 0.71 ± 0.24
  CPT1 relative hepatic mRNA: 0.94 ± 0.16
  CYP7α relative hepatic mRNA: 0.19 ± 0.18
  CYP27α relative hepatic mRNA: 1.00 ± 0.12
  FABP1 relative hepatic mRNA: 0.48 ± 0.15
  FAS relative hepatic mRNA: 1.45 ± 0.18
  FATP relative hepatic mRNA: 0.67 ± 0.12
  G6Pase relative hepatic mRNA: 0.25 ± 0.13
  GCK relative hepatic mRNA: 0.57 ± 0.16
  GPAM relative hepatic mRNA: 1.12 ± 0.27
  LDLR relative hepatic mRNA: 1.38 ± 0.50
  LXRα relative hepatic mRNA: 0.98 ± 0.09
  MCAD relative hepatic mRNA: 0.75 ± 0.12
  MTTP relative hepatic mRNA: 1.04 ± 0.14
  PCK1 relative hepatic mRNA: 1.47 ± 0.37
  PLTP relative hepatic mRNA: 0.81 ± 0.36
  PPARα relative hepatic mRNA: 0.59 ± 0.09
  Pkir relative hepatic mRNA: 0.77 ± 0.13
  SCD relative hepatic mRNA: 0.59 ± 0.13
  SRB1 relative hepatic mRNA: 1.52 ± 0.31
  SREBP-1c relative hepatic mRNA: 1.69 ± 0.75
  SULT2B1b relative hepatic mRNA: 3.33 ± 0.89
[3]; data not shown
  increase of IL1α expression: 217%
  increase of NFκB expression: 168%
[4]; Ad-Control and 25HC co-treatment group
  expression of ABCA1 and SREBP-1c: effectively up-regualted
[5]
  cholesterol contents in LDL and HDL fractions: significantly increased
  triglyceride contents in LDL fractions: significantly increased

## CC(CCCC(C)(C)O)C1CCC2C3CC=C4CC(OS(=O)(=O)O)CCC4(C)C3CCC12C (stereo not shown) [25HC3S, 25-hydroxycholesterol-3-sulfate]
[1]
  suppression of FAS protein level: 40%
  suppression of cytoplasmic ACC1 protein level: 50%
  suppression of nuclear SREBP-1c protein level: 70%
[2]; HCD 10 weeks
  ALK: 89 ± 19 IU/L
  ALT: 44 ± 5 IU/L
  AST: 227 ± 48 IU/L
  Cholesterol: 86 ± 7 mg/dL
  Glucose: 249 ± 39 mg/dL
  HDL-C: 77 ± 7 mg/dL
  Triglycerides: 43 ± 8 mg/dL
[2]; HFD 10 weeks
  ALK: 76 ± 21 IU/L
  ALT: 47 ± 6 IU/L
  AST: 222 ± 54 IU/L
  Cholesterol: 87 ± 24 mg/dL
  Glucose: 245 ± 50 mg/dL
  HDL-C: 72 ± 26 mg/dL
  Triglycerides: 34 ± 9 mg/dL
[3]; HFD mice
  ABCA1 relative hepatic mRNA: 0.71 ± 0.12
  ABCG1 relative hepatic mRNA: 1.14 ± 0.76
  ACC1 relative hepatic mRNA: 0.56 ± 0.12
  ACOX1 relative hepatic mRNA: 0.82 ± 0.16
  CD36 relative hepatic mRNA: 0.93 ± 0.36
  CPT1 relative hepatic mRNA: 1.05 ± 0.19
  CYP7α relative hepatic mRNA: 0.60 ± 0.18
  CYP27α relative hepatic mRNA: 1.06 ± 0.23
  FABP1 relative hepatic mRNA: 1.14 ± 0.45
  FAS relative hepatic mRNA: 0.33 ± 0.21
  FATP relative hepatic mRNA: 1.05 ± 0.29
  G6Pase relative hepatic mRNA: 1.36 ± 0.77
  GCK relative hepatic mRNA: 1.10 ± 0.68
  GPAM relative hepatic mRNA: 1.16 ± 0.08
  LDLR relative hepatic mRNA: 1.07 ± 0.09
  LXRα relative hepatic mRNA: 0.79 ± 0.10
  MCAD relative hepatic mRNA: 1.36 ± 0.31
  MTTP relative hepatic mRNA: 1.31 ± 0.20
  PCK1 relative hepatic mRNA: 1.02 ± 0.25
  PLTP relative hepatic mRNA: 0.97 ± 0.55
  PPARα relative hepatic mRNA: 0.93 ± 0.35
  Pkir relative hepatic mRNA: 0.61 ± 0.18
  SCD relative hepatic mRNA: 0.93 ± 0.27
  SRB1 relative hepatic mRNA: 1.30 ± 0.22
  SREBP-1c relative hepatic mRNA: 0.56 ± 0.13
  SULT2B1b relative hepatic mRNA: 1.29 ± 0.34
[3]; [6]
  reduction of ACCT mRNA level: 45%
  reduction of FAS mRNA level: 70%
  reduction of LXRα mRNA level: 20%
  reduction of SREBP-1c mRNA level: 45%
[4]; 5 mg/kg, 48 h
  decrease of ABCA1 protein level: 50%
  decrease of LXRα protein level: 40%
  decrease of SREBP-1c protein level: 30%
  increase of PCNA protein level: 2 fold
[5]
  LDL, VLDL, and HDL protein levels: did not change
  cholesterol contents in HDL fractions: slightly decreased
  triglyceride contents in VLDL fractions: markedly decreased
